Assay [1] has as its system crude extract of strain SC510 Rif^r. The assay is described as follows: Enzymatic chelation with cobalt in crude extract of strain SC510 Rif^r. It is filed as biochemical, Pseudomonas denitrificans. Particulars: 7 mM ATP, 200 μM CoCl2. As for the experimental part: A crude extract of strain SC510 Rif^r is obtained by sonication of wet cells (10 g) in 0.2 M Tris-HCl buffer pH 8.0 (20 ml), followed by removal of the cell debris by centrifugation for 1 h at 50,000×g. Proteins (1000 mg) of this extract are incubated for 1 h at 30° C. with carbon-14-labelled hydrogenobyrinic acid diamide (32 nmol; 50 μCi/μmol) in 0.2 M Tris-HCl buffer pH 8.0 (40 ml) containing 7 mM ATP and 200 μM CoCl2. The reaction is stopped by adding 1 M KH2PO4 (7.5 ml) and 0.3 M KCN (6 ml), followed by heating for 10 min at 80° C. […] To confirm that the product is indeed cobyrinic acid a,c-diamide, the product is purified by HPLC and then esterified in methanol containing 5% of sulphuric acid (18 h, 20° C.). […] It should be noted that, under similar incubation conditions in which the radioactive labelling is introduced, not into the hydrogenobyrinic acid a,c-diamide, but into the cobalt (using cobalt-57), cobalt-57-labelled cobyrinic acid a,c-diamide is biosynthesised and the same conclusions could be drawn.

For assay [2], the target named is Pseudomonas denitrificans SUMT (Sinorhizobium sp, UniProt P21631). Particulars: cited from earlier work.
The target of assay [3] is T1, Methanobacterium ivanovii SUMT (Methanobacterium ivanovii, UniProt P29564).
T1 construct: endogenous in cells; host or cells: Methanobacterium ivanovii DSM2611 (enzyme purified to homogeneity from the natural organism)
T1 sequence (P29564 2-231 limits assumed): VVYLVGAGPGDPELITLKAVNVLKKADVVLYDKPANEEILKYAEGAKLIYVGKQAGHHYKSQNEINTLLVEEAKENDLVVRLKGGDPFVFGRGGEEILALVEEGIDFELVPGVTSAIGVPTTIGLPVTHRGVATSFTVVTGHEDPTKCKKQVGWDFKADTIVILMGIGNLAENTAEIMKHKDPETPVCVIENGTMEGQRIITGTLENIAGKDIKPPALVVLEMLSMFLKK
Briefly: Catalytic properties of purified M. ivanovii SUMT. It is filed as biochemical. How it is done: Methanobacterium ivanovii strain DSM2611 is cultured as described (Souillard et al., 1988). Wet cells (12 g) are obtained. The latter are resuspended in 0.1 M Tris-HCl buffer pH 7.6 (80 ml) containing 5 mM DTT and 1 mM EDTA, and sonicated for 1 h 30 min at 4° C. and then centrifuged for 1 h at 50,000 g. Free tetrapyrrole compounds are then cleared from the extract by passage through a small DEAE-Sephadex A25 column set up in the same buffer. The proteins precipitating at between 55 and 75% ammonium sulphate saturation are solubilised in a 0.1 M Tris-HCl pH 7.5, 0.5 mM DTT, 1.7 M ammonium sulphate buffer and injected onto a Phenyl-Superose HR 10/10 (Pharmacia France/SA) column eluted with a decreasing gradient (1.7 M to 0 M with respect to ammonium sulphate). The active fractions are passed through a Sephadex G-25 column equilibrated with 0.1 M Tris-HCl pH 7.5, 0.5 mM DTT, 25% glycerol buffer (buffer A), then injected onto a Mono Q HR 5/5 (Pharmacia France SA) column equilibrated with buffer A and eluted with a KCl gradient of 0 to 0.3 M; this step is repeated a second time under the same conditions. Gel permeation chromatography of the active fraction of the preceding step on Bio-Sil TSK-250 (BioRad France SA) enables a protein which is homogeneous in SDS-PAGE and in RP-HPLC (C-18 pBondapak) to be obtained. The different steps of purification, with their yield, as well as their purification factor, are described in the table below.
As shown in this table, the total purification factor is more than 4,500. Some properties of the pure enzyme have been studied according to methods already described (Blanche et al., 1989). This enzyme does indeed have SUMT activity, i.e. it does indeed catalyse the SAM-dependant transfer of two methyl groups at C-2 and at C-7 of uro'gen III.
The Vmax of M. ivanovii SUMT was determined. It is 1537 U/mg of proteins. This value is greater than that found for P. denitrificans SUMT, already determined under optimal conditions for the reaction (taking account of its inhibition by uro'gen III), 489 U/mg of proteins (Blanche et al., 1989).

Sequence of Pseudomonas denitrificans SUMT (P21631 whole entry): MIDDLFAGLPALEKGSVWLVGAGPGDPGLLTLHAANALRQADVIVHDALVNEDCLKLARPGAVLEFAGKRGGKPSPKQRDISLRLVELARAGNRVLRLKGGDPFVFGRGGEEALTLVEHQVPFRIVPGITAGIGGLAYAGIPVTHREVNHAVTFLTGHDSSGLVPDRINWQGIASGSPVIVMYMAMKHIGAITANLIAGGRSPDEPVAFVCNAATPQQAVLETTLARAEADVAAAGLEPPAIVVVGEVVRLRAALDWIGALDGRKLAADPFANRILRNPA

Regarding `C/C1=C2N=C(/C=C3\N/C(=C(/C)C4=NC(C)(C5N=C1C(C)(CCC(=O)O)C5CC(=O)O)C(C)(CC(=O)O)C4CCC(=O)O)C(C)(CC(=O)O)C3CCC(=O)O)C(C)(C)C/2CCC(=O)O` (stereo not shown) [hydrogenobyrinic acid], the “substrate for enzymatic chelation with cobalt” value in assay [1] is reported as “not a substrate”.

By Km is commonly meant the concentration of substrate that gives half-maximal velocity. uroporphyrinogen III [uro'gen III]: in assay [2], the “concentration above which inhibition by uro'gen III is shown” value is listed as “above 2 μM”. Further, in assay [3] (at concentrations below 20 μM), the inhibition by substrate result is “does not show inhibition by substrate”. Also, the Km in assay [3] (conditions of Blanche et al., 1989) is 0.052 µM.

The values above are taken from patent US6656709B1, “Methods of increasing the production of cobalamins using cob gene expression” (priority 1990, dated 2003).
